Tested on: HER2 phosphorylation
Conditions: HER2-driven cell lines, 2 hours, normoxic, immunoblot

CN(C)CC=CC(=O)Nc1cc2c(Nc3ccc(F)c(Cl)c3)ncnc2cc1O[C@H]1CCOC1 [afatinib, N-[4-[(3-Chloro-4-fluorophenyl)amino]-7-[[(3S)-tetrahydro-3-furanyl]oxy]-6-quinazolinyl]-4(dimethylamino)-2-butenamide]
Concentration inhibiting HER2 phosphorylation (pHER2): 100 nM
